Assays:
[1] = In vitro biotransformation of P8-D6 with mouse tissue PNS; type: in vitro ADME; conditions: mouse liver PNS, 1 mM P8-D6, 150 min
Protocol: (§1) P8-D6 (1 mM) was incubated with postnuclear supernatant (PNS), microsomes, or S9 reaction mixture of various tissue samples (liver, kidney, lung, spleen, and colon) from different donor species (pigs, mice, rats, and humans) for 150 min (study preparation scheme supplied as Figure S5). The commercial human and rat enzymes were subjected to quality control by the supplier. Three phase I metabolites were identified. […] LC-MS and NMR spectroscopic data for the metabolites are given in Supporting Information. Based on the structural characteristics, the metabolites were named as follows: P8-DO (4), P8-D6 N-oxide (6), and P8-D6 mono (8). All metabolites were synthesized to confirm the postulated structure (chapter Synthesis of Metabolites). The extent of metabolism during in vitro incubation was highly dependent on the species (pig > mouse > rat > human) (Figure ).
(§2) For all phase I metabolism studies (except cell cultures), a 0.3 mL reaction mixture consisting of 1 mM substrate (P8-D6, P8-D6 mono, P8-D6 N-oxide), 1 mM NADPH as a cofactor, 0.67 mg/mL protein from homogenized tissue or subcellular fractions, respectively (except recombinant enzymes, where 0.5 mg/mL was used), and PBS buffer (pH 7.4) was used. All experiments were performed in biological triplicates. […]

[2] = In vitro biotransformation of P8-D6 with rat tissue fractions; type: in vitro ADME; conditions: 1 mM P8-D6, 150 min
Protocol: as §1, §2

CYP2B6 = biological target: T1, CYP2B6 (Homo sapiens, UniProt P20813); test: In vitro CYP inhibition, marker substrate bupropion; type: in vitro ADME
T1 construct: host or cells: human liver microsomes (one value) / recombinant CYP enzyme (other value)
T1 sequence (P20813 whole entry): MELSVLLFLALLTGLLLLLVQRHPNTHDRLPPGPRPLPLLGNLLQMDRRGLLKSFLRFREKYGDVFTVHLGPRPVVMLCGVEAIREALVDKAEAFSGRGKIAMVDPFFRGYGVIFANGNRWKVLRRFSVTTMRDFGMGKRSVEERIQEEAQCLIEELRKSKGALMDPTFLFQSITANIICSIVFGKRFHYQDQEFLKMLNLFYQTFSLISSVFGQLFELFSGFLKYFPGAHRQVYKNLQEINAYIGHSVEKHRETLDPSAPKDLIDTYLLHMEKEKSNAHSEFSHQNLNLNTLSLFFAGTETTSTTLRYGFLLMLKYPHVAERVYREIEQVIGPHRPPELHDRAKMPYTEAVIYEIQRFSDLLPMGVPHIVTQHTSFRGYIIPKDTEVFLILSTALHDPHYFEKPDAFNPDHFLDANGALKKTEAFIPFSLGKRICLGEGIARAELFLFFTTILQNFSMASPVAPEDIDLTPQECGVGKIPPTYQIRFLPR
Protocol: (§3) To assess metabolizing enzyme-mediated drug interactions, P8-D6 was incubated with human liver (HLM) or recombinant CYP enzymes and the respective marker substrate according to the FDA (with the exception of using amitriptyline instead of S-mephenytoin). −
(§4) However, as some conversions were catalyzed by several enzymes, the conversion rates in HLM increased (e.g., bupropion and diclofenac).
(§5) To examine a possible in vitro CYP inhibition, the following CYP enzymes and marker substrates were investigated according to the FDA: , phenacetin (CYP1A2), bupropion (CYP2B6), amodiaquine (CYP2C8), diclofenac (CYP2C9), amitriptyline (CYP2C19), dextromethorphan (CYP2D6), testosterone (CYP3A4), and nifedipine (CYP3A4). Incubation was performed in a 0.2 mL reaction mix consisting of PBS buffer (pH 7.4), 1 mM marker substrate, 1 mM NADPH, and either 0.5 mg/mL recombinant CYP enzyme or human liver microsomes. P8-D6 was added for a final concentration of 0.5 μM, 1 μM, 5 μM, 10 μM, 25 μM, 50 μM, 100 μM, 500 μM, 1000 μM, and (in some cases) 5000 μM. Sample preparation was performed according to in vitro biotransformation.

CYP3A4 = biological target: T2, CYP3A4 (Homo sapiens, UniProt P08684); test: In vitro CYP inhibition, marker substrate testosterone; type: in vitro ADME
T2 construct: host or cells: human liver microsomes (one value) / recombinant CYP enzyme (other value)
T2 sequence (P08684 whole entry): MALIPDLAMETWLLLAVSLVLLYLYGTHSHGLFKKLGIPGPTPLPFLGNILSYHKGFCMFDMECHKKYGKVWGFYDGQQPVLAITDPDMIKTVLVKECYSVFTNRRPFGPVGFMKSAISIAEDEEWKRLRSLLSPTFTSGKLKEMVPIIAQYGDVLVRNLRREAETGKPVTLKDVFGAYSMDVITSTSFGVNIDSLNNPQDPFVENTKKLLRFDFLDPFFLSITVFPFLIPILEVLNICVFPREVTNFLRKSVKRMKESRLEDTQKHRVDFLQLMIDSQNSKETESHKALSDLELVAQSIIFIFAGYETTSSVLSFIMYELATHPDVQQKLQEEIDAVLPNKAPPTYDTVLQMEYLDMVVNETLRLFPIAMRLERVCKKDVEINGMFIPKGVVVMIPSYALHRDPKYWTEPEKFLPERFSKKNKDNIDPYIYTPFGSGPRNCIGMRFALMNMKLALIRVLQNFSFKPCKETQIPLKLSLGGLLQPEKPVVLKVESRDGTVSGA
Protocol: as §3, §4, §5

BCRP (ABCG2) = biological target: T3, BCRP (ABCG2) (Homo sapiens, UniProt Q9UNQ0); test: Transporter inhibition, calcein-AM accumulation in MDCKII cells (BCRP overexpression); type: cell-based; conditions: intracellular accumulation of calcein-AM
T3 construct: expressed in transfected cells; host or cells: MDCKII
T3 sequence (Q9UNQ0 whole entry, species assumed): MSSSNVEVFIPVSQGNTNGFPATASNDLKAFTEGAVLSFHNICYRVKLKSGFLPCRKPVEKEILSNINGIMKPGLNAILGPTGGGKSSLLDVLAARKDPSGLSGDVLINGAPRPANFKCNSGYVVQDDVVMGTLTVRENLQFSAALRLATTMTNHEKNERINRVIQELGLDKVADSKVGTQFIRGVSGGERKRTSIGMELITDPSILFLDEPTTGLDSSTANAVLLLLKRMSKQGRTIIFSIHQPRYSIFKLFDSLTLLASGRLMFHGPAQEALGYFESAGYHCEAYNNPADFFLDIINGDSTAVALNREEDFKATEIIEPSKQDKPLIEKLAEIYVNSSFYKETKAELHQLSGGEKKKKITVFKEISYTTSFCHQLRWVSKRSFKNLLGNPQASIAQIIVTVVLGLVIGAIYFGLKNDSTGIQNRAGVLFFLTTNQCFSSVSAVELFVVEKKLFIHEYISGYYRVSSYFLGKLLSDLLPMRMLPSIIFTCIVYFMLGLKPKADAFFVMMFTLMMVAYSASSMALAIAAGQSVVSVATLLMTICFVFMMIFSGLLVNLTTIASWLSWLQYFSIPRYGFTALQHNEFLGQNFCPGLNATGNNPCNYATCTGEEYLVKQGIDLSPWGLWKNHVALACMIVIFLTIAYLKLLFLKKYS
Protocol: The inhibitory characteristics of P8-D6 on the classic efflux transporters P-GP and BCRP (ABCG2) were evaluated (Figure ).
A potential interaction of P8-D6 with the export protein P-GP (ABCB1) was evaluated in MDCK (P-GP overexpression) and MDCKII (BCRP overexpression) cells. P-GP interaction was determined by the measurement of calcein accumulation within the cells according to Bauer et al. Calcein-acetoxymethylester (calcein-AM) is a nonfluorescent, lipophilic and therefore highly cell-permeable ester. Once inside the cell, the ester bonds are rapidly cleaved by nonspecific esterases, generating highly fluorescent calcein, which is trapped inside the cell because of its hydrophilic nature. Because calcein-AM is a substrate for P-GP, inhibition of the transporter decreases efflux, which results in a higher intracellular fluorescence signal. […] Calcein-AM (MoBiTec, Göttingen, FRG) was added to a final concentration of 1 μM and incubated for 30 min at 37 °C. Afterward, the cells were immediately washed 3 times with ice-cold Krebs–Ringer buffer and lysed with 1% Triton X-100. […] Each determination was repeated 3 times in 2 experiments to ensure reproducibility. All fluorescence values were corrected by subtracting the background fluorescence.

[3] = Plasma protein binding by ultrafiltration; type: in vitro ADME; design: dose or concentration left out as unconfirmed; conditions: human, rat, human and rat plasma, 37 °C
Protocol: To examine the effect of the P8-D6 plasma protein binding on the in vivo bioavailability, human and rat plasma was spiked in vitro and incubated with P8-D6. By using ultrafiltration to separate free P8-D6 from the protein-bound fraction, a plasma protein binding of 99% (Figure A) was estimated. However, neither human α-1-microglobulin (3.06%) nor human serum albumin (0.91%) is responsible for binding. According to initial findings, γ-globulins (94.59%), human transferrin (90.43%), LDL (87.99%), human α2-HS glycoprotein (85.29%), and human fibrinogen (78.89%) lead to binding of P8-D6.
To examine the extent of plasma protein binding, 150 μL of blank samples of human plasma […] and rat plasma […], human albumin (1 mM, #A1653, Merck KGaA, Darmstadt); human α1-acid glycoprotein (1 mM; #G9885, Merck KGaA, Darmstadt); human α2-HS-glycoprotein (0.1 mM; #G0516, Merck KGaA, Darmstadt); human transferrin (0.2 mM; #T8158, Merck KGaA, Darmstadt); human fibrinogen (0.2 mM; #F3879, Merck KGaA, Darmstadt); LDL (0.2 mM; […]); and human γ-globulin (1 mM; #G4386, Merck KGaA, Darmstadt) were spiked with P8-D6 in the same final concentration as the protein and incubated in a shaking water bath at 37 °C for 120 min. Afterward, the unbound fraction of P8-D6 was separated by ultrafiltration (Vivaspin 500 10 000 MWCO filter). The sample preparation was performed according to plasma samples. […]

Lipophilicity = type: physicochemical
[4] = mice; ref not given; cited from earlier work

Row | formation of metabolite from P8-D6 [1] | formation of metabolite from P8-D6 ([2]; rat liver microsomes) | formation of metabolite from P8-D6 ([2]; rat lung PNS) | Compound | IC50 (CYP2B6; HLM) | IC50 (CYP2B6; recombinant CYP isoenzyme) | IC50 (CYP3A4; HLM) | IC50 (CYP3A4; recombinant CYP isoenzyme) | IC50 (BCRP (ABCG2)) | fraction unbound at 120 min [3] | logP (Lipophilicity) | logD (Lipophilicity; pH 7.4, read-out: log D7.4) | maximum tolerated dose [4]
1 | 3.08% | 1.91% | 1.37% | COc1cc(-c2cc3ccncc3c3nc(OCC[N+](C)(C)[O-])c4cnccc4c23)cc(OC)c1OC [P8-D6 N-oxide] |  |  |  |  |  |  |  |  | 
2 |  |  |  | COc1cc(-c2cc3ccncc3c3nc(OCCN(C)C)c4cnccc4c23)cc(OC)c1OC [P8-D6, 6-(N,N-dimethyl-2-aminoethoxy)-11-(3,4,5-trimethoxyphenyl)-pyrido[3,4-c][1,9]-phenanthroline] | > 1000 µM | > 1000 µM | 165 µM | 94 µM | 16.3 µM | 0.01 | 2.9 | 3.7 | 5 mg/kg BW

Source: article PMC11997890, “In Vivo and In Vitro Pharmacokinetic Studies of a Dual Topoisomerase I/II Inhibitor” (ACS Pharmacology & Translational Science, 2025)
